Reference: patent US11124847B1, “Systems and methods for assessing perturbations in cellular differentiation using reporter cell lines” (priority 2017, dated 2021)

Tested on: hNPC
Assay: Immunofluorescence staining and high-content cell analysis of differentiation markers in hNPCs differentiated after 24 hour neurotoxin treatment
Assay type: cell-based, human
Conditions: for level of GFAP (glial marker): hNPC treated 24 hours
Description: In an example, high-content cell analysis from cells grown in each well in a 96-well plate was sufficient to detect multiple markers via antibody staining and to be normalized to the DAPI signal, a common baseline measure of DNA content. […] In this example, hNPC are indicated by NESTIN (NES) and SRY-Box 2 (SOX2). Glial Fibrillary Acidic Protein (GFAP) is used as a marker of glial cells (both astrocytes and radial glia), and the neuron-specific class III β-tubulin (TUJ1) is used to indicate neurons. Expression of both GFAP and TUJ1 increased at 21 days and 50 days following differentiation, while both SOX2 and NES decreased at 21 days. Levels of SOX2 expression returned to baseline following 50 days.
A broad range of doses for each toxin was selected to determine the dose response and capture the full range to which a developing human brain may be exposed. Cultured hNPC's were treated for 24 hours to avoid complications associated with non-specific toxicity that may occur with chronic treatment, and because we were interested in whether early, acute exposure produces long-term effects detectable in our assay.

For `CC(C)(c1ccc(O)cc1)c1ccc(O)cc1` [BPA, bisphenol A], the “level of GFAP (glial marker)” value (21D time point, low to moderate doses) was “increase” and the “level of GFAP (glial marker)” value (50D time point, low to moderate doses) was “increase”.

For `C[N+]([O-])=NCO` [MAM, methylazoxymethanol], the “level of GFAP (glial marker)” value (21D time point, increasing doses, vs DMSO control) was “striking increase”, the “level of GFAP (glial marker)” value (50D time point, vs DMSO control) was “general decrease” and the “hNPC markers (NESTIN and SOX2)” value (24 hours, across doses) was “clear dose-dependent increase”. The “hNPC-GLIA population (markers of hNPC and glial cells)” value (21 days, across increasing doses) was “significant increase”, the “neuronal population (NEURON)” value (21 days, as a function of increasing dose) was “striking decrease” and the “hNPC-GLIA population (markers of hNPC and glial cells)” value (50 days) was “decreased”. The “neuronal population (NEURON)” value (50 days) was “increased”.

For `CCCC(CCC)C(=O)O` [VPA, valproic acid], the “level of GFAP (glial marker)” value (across differentiation time points, compared with MAM and BPA) was “more modest effects”.
